Experiment [1] addresses T1, NANOLUC-p38 alpha fusion protein (Homo sapiens, UniProt Q16539).
T1 construct: expressed in transfected cells; host or cells: HEK293
In words: Pull-down of NANOLUC-p38 alpha fusion from HEK293 cell lysates (Example 5). The conditions noted are these: 1 μM conjugate, HEK293 cell lysate. It is filed as binding. The procedure: In this example, BIRB-chloroalkane conjugate (PBI-4834) and BIRB chloroalkane conjugate containing a cleavable linker (PBI-5131) were utilized to pull-down a NANOLUC-p38 alpha fusion protein from HEK293 cell lysates. Lysate of cells expressing NANOLUC-p38 fusion were incubated with 1 μM PBI-4834 or PBI-5131 (final concentration) while control lysates were not treated with the conjugated drugs. Following equilibration binding for 2 h, the lysates were transferred to wells of a 96-well plate containing 0.5 μl settled paramagnetic HALOTAG protein beads and incubated with shaking for 45 min. Following binding the unbound fraction was removed, the HALOTAG protein paramagnetic beads were washed 3×, and the captured NANLUC-p38 alpha fusion specifically released from the beads by one of two methods: • 1. 150 μM unconjugated BIRB796 was used to compete for binding with the conjugated BIRB796 on the NANOLUC-p38 alpha fusion for 60 min. • 2. The NANOLUC-p38 alpha fusion was rapidly released through 10 min chemical cleavage of the chloroalkane linker with 10 mM of sodium hydrosulfite (PBI-5131 is a chloroalkane cleavable linker).

Experiment [2] deals with T1, NANOLUC-p38 alpha fusion protein. Kind of experiment: Pull-down of NANOLUC-p38 alpha fusion from living HEK293 cells onto HALOTAG protein beads (Example 3). It is filed as cell-based. The method, then: HEK293 cells in wells of a 96-well plate were transfected using PEI with plasmid DNA encoding NANOLUC-p38 fusion. Twenty-four hours post-transfection, cells were incubated with a final concentration of 10 μM PBI-4834 while control cells were not treated with the conjugated drug. Following equilibrium binding of 2 hours, the media was removed, cells were quickly washed with PBS and lysed in a detergent-based lysis buffer for 10 minutes. The cell lysates were then transferred to wells of a 96-well plate which contained 0.5 μl settled paramagnetic HALOTAG protein beads (Promega Corp.) and incubated with shaking for 15-45 minutes. Following binding, the unbound fraction was removed and the HALOTAG protein paramagnetic beads were washed. 150 uM unconjugated BIRB796 was then added and the captured NANOLUC-p38 alpha fusion was specifically released from the beads by competition with the unconjugated BIRB796 for 60 minutes. The released NANOLUC-p38 alpha fusion protein (+PBI-4834) and control (−PBI4834) was detected using NANOGLO luciferase reagent (Promega Corp.).

In experiment [3] the target is T2, NANOLUC-p38 fusion protein (Homo sapiens, UniProt Q16539).
T2 construct: expressed in transfected cells
T2 sequence (Q16539 whole entry, the tested form may be a part): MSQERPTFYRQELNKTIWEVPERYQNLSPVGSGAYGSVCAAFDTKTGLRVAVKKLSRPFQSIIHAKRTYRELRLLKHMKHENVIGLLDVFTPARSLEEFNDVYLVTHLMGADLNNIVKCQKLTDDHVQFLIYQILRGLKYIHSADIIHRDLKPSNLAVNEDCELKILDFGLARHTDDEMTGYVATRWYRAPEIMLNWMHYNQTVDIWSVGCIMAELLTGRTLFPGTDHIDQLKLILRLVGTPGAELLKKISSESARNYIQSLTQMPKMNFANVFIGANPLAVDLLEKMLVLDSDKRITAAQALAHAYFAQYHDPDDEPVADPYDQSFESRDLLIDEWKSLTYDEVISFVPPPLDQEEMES
In words: HALOTAG dimer / HALOLINK plate capture of NANOLUC-p38 from cell lysates (Example 2). Conditions: cells treated with drug, listed as BIRB-chloroalkane. It is filed as binding. The procedure: Different amounts of a HALOTAG protein dimer (dimer of SEQ ID NO: 1) were added to cell lysates expressing a NANOLUC-p38 fusion protein (e.g., reporter/cellular-target fusion) which have or have not been treated with BIRB-chloroalkane (e.g., bioactive-agent/capture-ligand conjugate) as shown in Table 1. After 15 minute incubation, the samples were placed into wells of white, 96-well polystyrene plates activated with HALOTAG ligand (HALOLINK plates; Promega Corp.) and further incubated for 45 minutes. The wells were then washed PBS+0.05% Tween-20 (PBST). Then, 50 ul PBS followed by 50 ul of NANOGLO luciferase detection reagent was added to the wells, and luminescence measured.
Table 2 indicates differences in luminescence in samples with and without HALOTAG dimer (e.g., dimer of SEQ ID NO: 1) that indicate specific pull-down of the NANOLUC-p38 fusion protein.

In another experiment the target is T3, p38 alpha (Homo sapiens, UniProt Q16539).
T3 construct: isolate, e.g., pull-down, endogenous targets from cells; endogenous in cells; host or cells: HEK293
T3 sequence (Q16539 whole entry): as the sequence (Q16539 whole entry, the tested form may be a part) above
In words: Endogenous target pull-down from HEK293 cells, western blot and mass spec (Example 8). It is filed as cell-based. Conditions: 10 uM conjugate, listed as BIRB-CA. The method, then:
HEK293 cells were plated in a 6 well plate (2.5×10^5 cells). 48 hours post plating, a final concentration of 10 uM of BIRB-chloroalkane (PBI-4834) was added to 2 wells while control cells were not treated with the drug conjugate. Following equilibrium binding for 2 h, the media was removed, and the cells were quickly washed with PBS and lysed in detergent-based lysis buffer for 10 min. Cell lysates were then transferred to an Eppendorf® tube containing 12.5 ul of settled paramagnetic HALOTAG protein beads and incubated with shaking for 15 min. Following binding, the unbound fraction was removed, the HALOTAG protein paramagnetic beads washed 3×, and the captured targets specifically released from the beads by competition with 150 μM unconjugated BIRB796 for 60 min. The released targets were subjected to mass spec analysis as well as western blot analysis using an anti-p38 alpha antibody (Abcam).

Structures are written as SMILES. Where “and” joins values, the source holds several entries; their conditions need not be identical. Equal values may be shown once.

T1 sequence (Q16539 whole entry, the tested form may be a part): as above

`CC(C)(C)c1cc(NC(=O)Nc2ccccc2)n(-c2cccc(CNC(=O)CNC(=O)OCCOCCOCCOC(=O)NCCOCCOCCCCCCCl)c2)n1` [PBI-4834]: the “pull-down efficiency of NANOLUC-p38 alpha” value in experiment [1] is given as “significantly higher compared to PBI-5131”. Further, the “expressed fusion specifically captured to the beads” value in experiment [2] (10 μM conjugate, HEK293 cells, HALOTAG protein beads) is listed as 1%. Further, the “signal over background of capture” value in experiment [2] (within 15 minutes of capture on HALOTAG protein beads) is reported as “high signal over background”. Besides, the “luminescence (captured NANOLUC-p38)” value was 236900 and 397958 and 431167 in experiment [3] (2 ug/well HALOTAG dimer); 401205 and 538956 and 596504 in experiment [3] (6 ug/well HALOTAG dimer); 395510 and 526903 and 610628 in experiment [3] (8 ug/well HALOTAG dimer); 278085 and 275690 and 443682 in experiment [3] (No HALOTAG dimer). For the same compound, at p38 alpha, the “pull-down of endogenous p38 alpha” value is listed as “specific pull down of p38”.
